Data from US10072051B2, “Anti-inflammatory lipopeptide and preparing method and application thereof” (EAST CHINA NORMAL UNIVERSITY, priority 2012, dated 2018).
Entries after “also recorded” stand apart in the source; their conditions may differ.

Legend:
Format in all cases: cell-based
NHEKs = assay: poly(I:C)-induced TNF-α and IL-6 expression in NHEKs, real-time RT-PCR
Description: NHEKs were seeded in 24-well plates to grow to 70˜80% confluence, 2 ug/ml poly(I:C) were added. Different concentrations of the lipopeptide as Formula (1) in Example 1 were used to treat NHEKs. After 24 h, total RNA was extracted and cDNA was generated to detect the TNF-α and IL-6 expression by using real-time RT-PCR. […]

keratinocytes (NHEK) = assay: OVA-stimulated keratinocytes (NHEK), real-time RT-PCR; settings: NHEKs treated with PPARγ inhibitor
Description: To mimics the condition of atopic dermatitis keratinocytes was stimulated by ovalbumin (OVA). To test the inhibitory effect of the lipopeptide on inflammatory response in atopic dermatitis, PBS, OVA, lipopeptide, lipopeptide plus OVA were used to stimulate keratinocytes (NHEK) and RNA was extracted after 24-hour stimulation. The expression of TNF-α and IL-6 was analyzed by real-time RT-PCR.

β-catenin = β-catenin translocation into the nucleus in NHEKs; settings: LiCl, nucleocytoplasmic separation
p65 [1] = assay: p65 phosphorylation in NHEKs, Western blot; settings: poly(I:C) alone, 4 hours and 12 hours
Description: NHEKs were treated with PBS, poly(I:C), lipopeptide, poly(I:C) with lipopeptide for 4 hours or 12 hours. And then RIPA lysate was added to lyse the cell. The protein concentration was detected by using BCA protein assay kit, and 40 ug of proteins were separated by SDS-PAGE. The effects of the lipopeptide on p65 phosphorylation were detected by Western blot.

p65 [2] = assay: p65 translocation into the nucleus in NHEKs (immunofluorescence, Western blot of nuclear proteins); settings: poly(I:C) alone; for p65 translocation into the nucleus: immunofluorescence
Description: NHEKs were treated with PBS or poly(I:C) for 4 hours, and fixed with formaldehyde for 15 min followed by adding ice-cold 0.25% TritonX-100 and hydrogen peroxide. Cells were incubated with anti-p65 antibody at 4° C. for overnight after blocked with BSA for 0.5 hour. Next day, the cells were incubated with the second antibody (FITC-goat anti Rabbit IgG) and visualized under the microscope.
NHEKs were treated with PBS, lipopeptide, poly(I:C) with or without lipopeptide for 12 hours, and fixed with formaldehyde for 15 min followed by adding ice-cold 0.25% TritonX-100 and hydrogen peroxide. Cells were stained with anti-p65 antibody for overnight after blocked with BSA for 0.5 h. Then the cells were incubated with the second antibody (FITC-goat anti Rabbit IgG) and visualized under the microscope.
NHEKs were treated with PBS, poly(I:C), lipopeptide, poly(I:C) with lipopeptide for 12 hours. Proteins from nucleus were isolated and separated by PAGE. The p65 in the nucleus was detected by Western blot. […] Thus the lipopeptide has no effect on poly(I:C)-induced p65 translocation into the nucleus.

PPAR-γ and p65 = assay: interaction between PPAR-γ and p65 in NHEKs, co-immunoprecipitation; settings: poly(I:C) 4 hours or 12 hours, immunoprecipitation with p65 antibody
Description: Example 4 illustrates that poly(I:C) can induce p65 phosphorylation and translocation, and poly(I:C) induces the inflammatory response through PPAR-γ. The aim of Example 5 is to illustrate the interaction between the translocated p65 and PPAR-γ in the nucleus. NHEKs were treated with poly(I:C) for 4 hours or 12 hours. Whole-cell extracts were prepared by using lysis buffer containing NP40 and incubated with the p65 antibody at 4° C. for overnight. Protein AG beads were added and incubated at 4° C. for 1-2 hours. Beads were then washed twice with washing buffer. The immunoprecipitates were eluted with 20 ul 2× sodium dodecyl sulfate (SDS) loading buffer and separated by PAGE. The proteins were transferred to nitrocellulose membrane and probed with PPAR-γ antibody.

[3] = NHEKs treated with poly(I:C) alone, 24 h

Q: Which results are given for `O=C(Nc1ccccc1)c1cc([N+](=O)[O-])ccc1Cl` [GW9662]?
A: expression of IL-6 induced by poly(I:C) (NHEKs; NHEKs, 24 h): significantly inhibited; expression of TNF-α induced by poly(I:C) (NHEKs; NHEKs, 24 h): significantly inhibited; OVA-induced expression of inflammatory factor (keratinocytes (NHEK)): significantly decreased

Q: What does the source list for `[Cl-].[Li+]` [LiCl]?
A: poly(I:C)-induced inflammatory response (NHEKs; NHEKs, 24 hours): inhibits; β-catenin translocation (β-catenin): induces

Q: What does the source list for `N.S=C(S)N1CCCC1` [PDTC]?
A: expression of IL-6 induced by poly(I:C) (NHEKs; NHEKs, 24 h): inhibited; expression of TNF-α induced by poly(I:C) (NHEKs; NHEKs, 24 h): inhibited

Q: Which IL-6 expression (NHEKs; [3]) does the source give for poly(I:C) here?
A: The IL-6 expression was “dramatically induces; also recorded: dramatically increases”.

Q: And the TNF-α expression (NHEKs; [3])?
A: The TNF-α expression was “dramatically induces; also recorded: dramatically increases”.

Q: What about the p65 phosphorylation (p65 [1]) of the same molecule?
A: Its p65 phosphorylation is “significantly induces”.

Q: And the “p65 translocation into the nucleus” value (p65 [2]; 4 hours)?
A: The value was “obviously induces”.

Q: What about the “level of p65 in the nucleus” value (p65 [2]; 12 hours, Western blot) of the same molecule?
A: The value was “significantly increases”.

Q: And the “p65 translocation into the nucleus” value (p65 [2]; 12 hours)?
A: The value was “obviously induces”.

Q: And the “interaction between PPAR-γ and P65” value (PPAR-γ and p65)?
A: The value was “significantly induces”.
